These results are taken from PubChem BioAssay AID489040 (Sanford-Burnham Center for Chemical Genomics, 2010).

SMILES strings stand for the structures. Calls of active or inactive are those of the source.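 The calls were made as follows: active = mean half-maximal activating concentration from the dose-response fit at or below a set limit; inactive = the rest.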

The test addresses CHO-XBP1 luciferase reporter, IRE1-XBP1 UPR activation. The test is described as follows: activators of IRE1-XBP1 UPR arm, dose response, counter-screen for apoptotic UPR arm activators, CHO-XBP1 cells, luminescence (AID 489040).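 Also: reporter read after six hours of compound exposure.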 Background: A counterscreen serves to expose hits that act by an unwanted route or on another target.
Consider `CCc1nnc(NC(=O)CSc2nc(-c3ccccc3)cc(-c3ccc(OC)cc3)c2C#N)s1`, for which the EC50 (as a rule, the concentration needed to bring the measured effect to its halfway point) is > 80 µM (inactive).

Take `CCCCOc1ccc(N2C(=O)CC(N(O)c3ccccc3)C2=O)cc1` (configuration not stated): the EC50 was > 80 µM (inactive).

As to `C=C(C(=O)c1ccccc1)C(C(=C)C(=O)c1ccccc1)c1ccc(OC)cc1`, the EC50 was > 80 µM (inactive).

Take `O=C1NC(=O)N(c2ccccc2)C(=O)/C1=C\C=C\c1ccccc1`: the EC50 was > 80 µM (inactive).

For `CC(=O)c1ccc(NC(=O)COC(=O)c2ccccc2N=Nc2ccc(N(C)C)cc2)cc1`, the EC50 is 4.12 µM.

In the case of `CCCOc1ccc(N2C(=O)CC(N(O)c3ccccc3)C2=O)cc1` (configuration not stated), the EC50 is > 80 µM (inactive).

On to `Cc1cccc(OCCN2CSC(=S)N(C)C2)c1`, for which the EC50 was > 80 µM (inactive).

For the compound `O=[N+]([O-])c1ccccc1S(=O)(=O)Nc1cccc2cccnc12`, the EC50 is > 80 µM (inactive).

For the compound `O=[N+]([O-])/C=C\c1ccc(N2CCOCC2)cc1`, the EC50 is > 80 µM (inactive).

For `CCCCNC1C(CC)C(CCC)C(C#N)(C#N)C1(C#N)C#N` (configuration not stated), the EC50 was > 80 µM (inactive).

Turning to `CCc1ccc2nc(N(CCCN(C)C)C(=O)c3ccc(S(=O)(=O)N4CCc5ccccc5C4)cc3)sc2c1`, the EC50 was > 80 µM (inactive).

`Oc1c(CN2CCCCC2)cc(Br)c2cccnc12`: the EC50 is > 80 µM (inactive).

For the compound `COc1cc2nc(NC(=O)c3ccc(Cl)cc3)sc(=O)c2cc1OC`, the EC50 was > 80 µM (inactive).

Turning to `COc1ccc(CNC[C@@H](CCCCN(C)Cc2ccc(OC)cc2)N2C[C@H](c3ccccc3)N(CCc3ccc(Cl)c(Cl)c3)C(=O)C2=O)cc1`, the EC50 is > 80 µM (inactive).

On to `COc1cc(/C=C/C(=O)c2ccc3c(c2)OCCO3)cc(Br)c1OCC(=O)N(C)C`, for which the EC50 was > 80 µM (inactive).

For the compound `COc1ccc2cc(C)c3nnc(SCC(=O)Nc4nc(-c5ccc(F)cc5)cs4)n3c2c1`, the EC50 entry was “inactive”.

Turning to `O=C(NCc1ccccc1Br)c1cccc2c1C(=O)c1ccc(-c3ccc(OC(F)(F)F)cc3)cc1S2(=O)=O`, the EC50 was 17 µM.

With `COc1ccc2cc1Oc1ccc(cc1)CC1c3c(cc(OC)c4c3Oc3cc5c(cc3O4)CCNC5C2)CCN1C` (configuration not stated), the EC50 is > 80 µM (inactive).

For the compound `O=C(NC1CCCC1)C(c1ccc(F)cc1)N(Cc1ccc(Cl)cc1)C(=O)CCl` (configuration not stated), the EC50 is > 80 µM (inactive).

Consider `Cn1c2ccccc2c2cc(/C=N/NC(=O)c3cc(O)ccc3O)ccc21`, for which the EC50 was > 80 µM (inactive).

In the case of `COc1ccc(C2Nc3ccc4ccccc4c3-c3c2c(=O)oc2ccccc32)cc1` (configuration not stated), the EC50 is 9.62 µM.

For `COc1cc(C(=O)Oc2c(CN3CCOCC3)cc(Cl)c3cccnc23)cc(OC)c1OC`, the EC50 was > 80 µM (inactive).

With `C=CCn1nc([N+](=O)[O-])nc1Sc1cccc2cccnc12`, the EC50 is > 80 µM (inactive).

With `Cc1cc(N2CCN(c3ccc([N+](=O)[O-])c4cccnc34)CC2)c2ccccc2n1`, the EC50 was > 80 µM (inactive).

Take `CCOc1ccccc1N=Cc1c(O)c2ccccc2oc1=O`: the EC50 was 10.8 µM.

For `C/C(=N/NC(=O)c1ccc(C(C)(C)C)cc1)c1ccccn1`, the EC50 was > 80 µM (inactive).

For the compound `Cc1cc(C(=O)CCl)c(C)n1Cc1ccco1`, the EC50 was > 80 µM (inactive).

In the case of `Cn1c(SCC(=O)NCC2CCCO2)ncc(C(=O)Nc2ccc(Cl)cc2)c1=O` (configuration not stated), the EC50 was > 80 µM (inactive).

On to `Cc1ccc2nc(-c3ccc(O)c(O)c3)cn2c1`, for which the EC50 was > 80 µM (inactive).

With `c1ccc(-c2nc(N3CCCCCC3)c3ccccc3n2)nc1`, the EC50 was > 80 µM (inactive).

As for `COC(=O)c1cc(=O)n(CCc2ccc(OC)cc2)c(=Nc2ccc(F)c(Cl)c2)s1`, the EC50 was > 80 µM (inactive).

`CCCN(CCC)C(=O)c1cc([N+](=O)[O-])cc2c1-c1ccc([N+](=O)[O-])cc1C2=C(C#N)C#N`: the EC50 is > 80 µM (inactive).

As for `CC(C)c1ccc(/C=C(\c2nc3ccccc3[nH]2)S(=O)(=O)c2ccccc2)cc1`, the EC50 was > 80 µM (inactive).

In the case of `O=C(N/N=C/c1ccccn1)c1cc([N+](=O)[O-])cc([N+](=O)[O-])c1`, the EC50 was > 80 µM (inactive).

On to `COc1ccc(OC)c(N=Cc2c(O)c3ccccc3oc2=O)c1`, for which the EC50 is 12 µM.

On to `O=C1NC(=S)NC(=O)C1=Cc1ccc(Br)s1`, for which the EC50 is > 80 µM (inactive).

For `O=C(Nc1ccc(NC(=O)c2sc3ccccc3c2Cl)cc1Cl)c1ccco1`, the EC50 result was “inactive”.

Regarding `COc1nc(N)nc(NC(=O)c2cccs2)c1N=O`, the EC50 is > 80 µM (inactive).

As to `Cc1ccc(-c2nnc(-c3ccc(NC(=O)c4cccs4)cc3)o2)cc1`, the concentration giving a half-maximal response (EC50) is 11.9 µM.

With `O=C(CCl)Nc1cc(S(=O)(=O)N2CCCCCC2)ccc1Cl`, the EC50 was > 80 µM (inactive).

For the compound `Cc1cc(N/N=C/c2ccccc2[N+](=O)[O-])nc(-n2nc(C)cc2C)n1`, the EC50 is > 80 µM (inactive).

On to `COC(=O)c1ccc(COc2ccccc2/C=C(\C#N)C(=O)Nc2c(C)cccc2C)cc1`, for which the EC50 entry was “inactive”.

For the compound `O=C(Cn1ncc(Cl)c(Cl)c1=O)c1ccc2c(c1)OCCO2`, the EC50 is > 80 µM (inactive).

With `O=C(Nc1nc(-c2ccccn2)cs1)c1cc(Cl)ccc1[N+](=O)[O-]`, the EC50 is > 80 µM (inactive).

For `CCOc1cc(NC(=O)CCl)c(OCC)cc1NC(=O)CCl`, the EC50 was > 80 µM (inactive).

Take `O=S(=O)(Nc1cccc2cccnc12)c1ccccc1`: the EC50 is > 80 µM (inactive).

Consider `CN(C)C(=S)N=Nc1[nH]c2ccccc2c1O`, for which the EC50 is > 80 µM (inactive).

Consider `COC(=O)c1ccc(-n2c(C)cc(C(=O)CCl)c2C)cc1`, for which the EC50 is 9.06 µM.

As for `COc1ccc(N2C(=O)/C(=C/C=C/c3ccccc3[N+](=O)[O-])C(=O)NC2=S)cc1`, the EC50 is > 80 µM (inactive).

On to `Cn1nc(C(F)(F)F)c(/C=N/OC(=O)c2ccccc2)c1SCc1ccccc1Cl`, for which the concentration for a half-maximal effect (EC50) is 6.11 µM.

With `S=C(Nc1ccccn1)c1ccccn1`, the EC50 is > 80 µM (inactive).

For `CCOC(=O)c1sc(NC(=S)NC(=O)c2ccccc2)c(C(=O)OCC)c1C`, the EC50 was > 80 µM (inactive).

As to `Oc1ccc(/C=N/Nc2cc(N3CCCC3)nc(N3CCCC3)n2)cc1O`, the EC50 entry was “inactive”.

`COc1ccc(/C=C/C(=O)Oc2ccc(C)cc2)cc1`: the EC50 was > 80 µM (inactive).

Regarding `COc1cc(C(=O)Sc2ccc(Cl)cc2)cc(OC)c1OC`, the EC50 is > 80 µM (inactive).

Turning to `O=C1C=CC(=O)N1c1ccc(N2CCCCC2)cc1`, the EC50 was > 80 µM (inactive).

In the case of `CCc1nc(N=Nc2c(O)[nH]c3ccccc23)c2c3c(sc2n1)CCC3`, the EC50 result was “inactive”.

For `Cc1cc(C(=O)CCl)c(C)n1-c1cccc([N+](=O)[O-])c1`, the EC50 is > 80 µM (inactive).

Take `COc1ccc2c(c1)CCc1c(C(=O)Nc3cc(C)n(Cc4ccc(Cl)cc4)n3)noc1-2`: the EC50 was > 80 µM (inactive).

Consider `COc1ccc(C(=O)/C=C2/C(=O)Nc3ccccc32)c(OC)c1`, for which the EC50 was > 80 µM (inactive).

As for `Cc1ccc(-n2nc3cc(C)c(NC(=S)NC(=O)/C=C/c4ccco4)cc3n2)cc1`, the EC50 result was “inactive”.

`N#CC1(C#N)COC23CCCCC2C1(C#N)C(=N)O3` (configuration not stated): the EC50 is > 80 µM (inactive).

In the case of `COc1ccc(/C=C/c2nc3cc(-c4ccccc4)ccc3o2)cc1O`, the EC50 is > 80 µM (inactive).

As to `O=C(/C=C1\NC2(CCCC2)Cc2ccccc21)C(=O)N/N=C/c1ccc(O)c(O)c1`, the EC50 was 13.6 µM.

As to `Cc1ccc(Cc2cnc(NC(=O)/C(C#N)=C/c3ccc(-c4ccc([N+](=O)[O-])cc4)o3)s2)cc1`, the EC50 result is “inactive”.

Consider `CC(C)c1ccc(NC(=O)/C(C#N)=C/c2ccncc2)cc1`, for which the EC50 was > 80 µM (inactive).

`CC(C)(C)C1=CC(=O)C(=O)C(C(C)(C)C)=C1`: the EC50 is > 80 µM (inactive).

Turning to `CCOC(=O)c1cc(-c2ccc(/C=C3/C(=O)N(c4ccc(C(=O)O)cc4)N=C3C)o2)ccc1Cl`, the EC50 is > 80 µM (inactive).

As to `C[C@@H]1C[C@@H]2O[C@H]2/C=C\C=C\C(=O)Cc2c(Cl)c(O)cc(O)c2C(=O)O1`, the EC50 was > 80 µM (inactive).

As to `Cc1ccc2oc(Nc3nc(-c4ccccc4)cc(=O)[nH]3)nc2c1`, the EC50 is > 80 µM (inactive).

For the compound `CCn1c(-c2ccccc2)c(C(=O)CCl)c2ccccc21`, the EC50 is > 80 µM (inactive).

Take `O=C(CSc1ccccn1)Nc1nonc1[N+](=O)[O-]`: the EC50 is > 80 µM (inactive).

For `CC1=C/C(=N\OC(=O)/C=C/c2ccccc2)C(C)=CC1=O`, the EC50 was > 80 µM (inactive).

In the case of `Oc1ccc(/C=N/N2CCN(C3c4ccccc4-c4ccccc43)CC2)cc1O`, the concentration giving a half-maximal response (EC50) is 18.8 µM.

Take `COc1ccc(-c2oc(NC(=O)CCl)c(C#N)c2-c2ccc(OC)cc2)cc1`: the EC50 is > 80 µM (inactive).

On to `Cc1c(C#N)c(NC(=O)CCl)n(Cc2cccs2)c1C`, for which the EC50 was > 80 µM (inactive).

On to `O=c1c2c3c(sc2ncn1/N=C/c1ccc([N+](=O)[O-])o1)CCCC3`, for which the EC50 was > 80 µM (inactive).

With `O=[N+]([O-])c1cc(O)c2ncccc2c1`, the EC50 is > 80 µM (inactive).

Regarding `N#Cc1ccc(N/N=C/c2cn(-c3ccccc3)nc2-c2ccccc2)c([N+](=O)[O-])c1`, the EC50 is > 80 µM (inactive).

For `CN1CSC(=S)N(C)C1`, the EC50 is > 80 µM (inactive).

Regarding `CCOC(=O)c1c(CSC(=N)N)n(-c2ccc(C)cc2)c2cc(Br)c(OC(C)=O)cc12`, the EC50 is > 80 µM (inactive).

With `CC(=O)/C(=N\Nc1ccc(Cl)cc1Cl)Sc1cccc2cccnc12`, the EC50 was > 80 µM (inactive).

Regarding `COc1ccccc1-c1nnc(Nc2nc3c(OC)cccc3s2)o1`, the EC50 was > 80 µM (inactive).

In the case of `CCN(CC)c1ccc(C=C2C(=O)NC(=S)NC2=O)cc1`, the EC50 was > 80 µM (inactive).

With `Cc1ccc(-c2nn3c(C)nnc3s2)cc1NC(=O)c1ccc(-c2ccc(Cl)cc2Cl)o1`, the EC50 is 15.9 µM.

`Cc1ccc(-c2cc(-c3ccc(C)cc3)[n+](-c3ccccc3)c(-c3ccc(C)cc3)c2)cc1`: the EC50 is > 80 µM (inactive).

Regarding `O=C(N/N=C/c1ccccn1)c1sc2ccccc2c1Cl`, the EC50 is > 80 µM (inactive).
